Literature values, collected in patent publication US20110046156A1, “TREATMENT OF HEARING AND BALANCE IMPAIRMENTS WITH REDOX-ACTIVE THERAPEUTICS” (priority 2009, published 2011).

[H]/N=C(/N)N[C@H]1[C@H](O)[C@@H](O)[C@H](O[C@@H]2O[C@@H](C)[C@](O)(C=O)[C@H]2O[C@@H]2O[C@@H](CO)[C@H](O)[C@@H](O)[C@@H]2NC)[C@@H](N/C(N)=N\[H])[C@@H]1O [streptomycin]
incidence of vestibular impairment (1 gram per day): 25%
patients displaying some vestibular impairment (2 grams daily for 60 to 120 days): ~75%
